Data on ten compounds can be found in patent publication US5891882A, “Benzopyranopyrrole and benzopyranopyridine α-1 adenergic compounds” (priority 1997, dated 1999).

Each structure is given as a SMILES string. Counter-ions that a name gives are not always drawn.

This assay addresses T1, α-1 Adrenoceptors (Rat Aorta) (Rattus norvegicus, UniProt P23944).
T1 construct: Rat Aorta; from tissue; host or cells: rat aorta
T1 sequence (P23944 1-561): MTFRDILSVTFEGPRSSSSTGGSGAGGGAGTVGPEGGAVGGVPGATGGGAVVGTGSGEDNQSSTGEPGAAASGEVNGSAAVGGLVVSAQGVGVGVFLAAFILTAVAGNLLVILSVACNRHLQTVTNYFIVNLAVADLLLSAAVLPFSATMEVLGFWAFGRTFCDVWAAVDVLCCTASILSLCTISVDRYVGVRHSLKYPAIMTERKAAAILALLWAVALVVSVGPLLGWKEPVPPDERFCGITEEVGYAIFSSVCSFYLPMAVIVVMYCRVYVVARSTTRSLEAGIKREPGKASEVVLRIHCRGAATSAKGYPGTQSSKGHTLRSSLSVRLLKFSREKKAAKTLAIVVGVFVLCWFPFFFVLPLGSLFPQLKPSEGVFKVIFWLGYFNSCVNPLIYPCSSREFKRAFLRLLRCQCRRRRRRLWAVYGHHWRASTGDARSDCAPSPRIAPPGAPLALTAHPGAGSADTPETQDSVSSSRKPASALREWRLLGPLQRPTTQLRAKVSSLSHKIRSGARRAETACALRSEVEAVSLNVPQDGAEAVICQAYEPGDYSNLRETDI
The assay is described as follows: Functional antagonism at α-1 adrenoceptors, rat aorta. It counts as cell-based. The conditions noted are these: read-out: In Vitro Characterization (pA2) Rat Aorta (converted). The source says: Functional assays indicative of pharmacologically defined α-1 adrenoreceptors were used to further characterize compounds. Inhibition of phenylephrine (PE)-induced contraction of canine prostate smooth muscle can be correlated with α-1A adrenoreceptor activation. […] For each of these models, agonist dose response curves were repeated against increasing concentrations of test agent to derive a Schild plot [log ([…]) against log (molarity of test agent)] to determine the pA2.

Take `COc1cccc2c1[C@@H]1CN(CCCCn3c(=O)[nH]c4c(sc5c(OC)ccnc54)c3=O)C[C@H]1CO2` [Example 17, 3-[4-((3aS,9bR)-trans-9-Methoxy-1,2,3,3a,4,9b-hexahydro-[1]-benzopyrano[3,4-c]pyrrol-2-yl)butyl]-6-methoxy-pyrido[2',3':4,51thieno[3,2-d]pyrimidine-2,4(1H,3H)-dione dihydrochloride]: the Kb is 0.631 nM.
In the case of `COc1cccc2c1[C@@H]1CN(CCCCn3c(=O)[nH]c4c(sc5c(OC)ccnc54)c3=O)C[C@@H]1CO2` [Example 18, 3-[4-((3aR,9bR)-cis-9-Methoxy-1,2,3,3a,4,9b-hexahydro-[1]-benzopyrano[3.4-c]pyrrol-2-yl)butyl]-6-methoxy-pyrido[2',3':4,51thieno[3,2-d]pyrimidine-2,4(1H,3H)-dione dihydrochloride], the Kb is 0.457 nM.
The result for `COc1cccc2c1[C@@H]1CN(CCCCn3c(=O)[nH]c4c(sc5ccc(Cl)nc54)c3=O)C[C@H]1CO2` [Example 25, 3-[4-((3aS,9bR)-trans-9-Methoxy-1,2,3,3a,4,9b-hexahydro-[1]-benzopyrano[3,4-c]pyrrol-2-yl)butyl]-8-chloro-pyrido[2',3':4,5]thieno[3,2-d]pyrimidine-2,4(1H,3H)-dione dihydrochloride] reads 0.0138 nM; that for `COc1cccc2c1[C@@H]1CN(CCCCn3c(=O)[nH]c4c(sc5cnccc54)c3=O)C[C@@H]1CO2` [Example 29, 3-[4-((3aR,9bR)-cis-9-Methoxy-1,2,3,3a,4,9b-hexahydro-[1]-benzopyrano[3,4-c]pyrrol-2-yl)butyl]-pyrido[4',3':4,5]thieno[3,2-d]pyrimidine-2,4(1H,3H)-dione hydrochloride], 0.501 nM.
The figure for `COc1cnc2sc3c(=O)n(CCCCN4C[C@@H]5COc6cccc(OC)c6[C@@H]5C4)c(=O)[nH]c3c2n1` [Example 31, hydrochloride] is 0.794 nM; for `COc1cccc2c1[C@@H]1CN(CCCCn3c(=O)[nH]c4c(sc5nc(C)ccc54)c3=O)C[C@@H]1CO2` [Example 35, hydrochloride] it is 0.741 nM; for `COc1cccc2c1[C@@H]1CN(CCCCn3c(=O)[nH]c4c(sc5nccc(OC)c54)c3=O)C[C@@H]1CO2` [Example 36, 3-[4-((3aR,9bR)-cis-9-Methoxy-1,2,3,3a,4,9b-hexahydro-[1]-benzopyrano[3,4-c]pyrrol-2-yl)butyl]-9-methoxy-pyrido[2',3':4,5]thieno[3,2-d]pyrimidine-2,4(1H,3H)-dione hydrochloride] it is 0.372 nM.
As for `COc1cccc2c1[C@@H]1CN(CCCCn3c(=O)[nH]c4c(sc5ccc(Cl)nc54)c3=O)C[C@@H]1CO2` [Example 37, 3-[4((3aR,9bR)-cis-9-Methoxy-1,2,3,3a,4,9b-hexahydro-[1]-benzopyrano[3,4-c]pyrrol-2-yl)butyl]-8-chloro-pyrido[2',3':4,5]thieno[3,2-d]pyrimidine-2,4(1H,3H)-dione hydrochloride], the Kb is 0.229 nM.
Take `COc1cccc2c1[C@@H]1CN(CCCCn3c(=O)[nH]c4c(sc5cc(Cl)cnc54)c3=O)C[C@@H]1CO2` [Example 38, 3-[4((3aR,9bR)-cis-9-Methoxy-1,2,3,3a,4,9b-hexahydro-[1]-benzopyrano[3,4-c]pyrrol-2-yl)butyl]-7-chloro-pyrido[2',3':4,5]thieno[3,2-d]pyrimidine-2,4(1H,3H)-dione hydrochloride]: the Kb is 1.15 nM.
Regarding `COc1cccc2c1[C@@H]1CN(CCCCn3c(=O)[nH]c4c(sc5nc(-c6ccccc6)cnc54)c3=O)C[C@@H]1CO2` [Example 40, 3-[4-((3aR,9bR)-cis-9-Methoxy-1,2,3,3a,4,9b-hexahydro-[1]-benzopyrano[3,4-c]pyrrol-2-yl)butyl]-7-phenyl-pyrazino[2',3':4,5]thieno[3,2-d]pyrimidine-2,4(1H,3H)-dione hydrochloride], the Kb was 4.47 nM.
